Measurements from patent US8946158B2, “Treatments of gastrointestinal disorders” (Ironwood Pharmaceuticals, Inc., priority 2009, dated 2015).
Positions of bridges follow the written chain, without caps; N, C: chain ends. Non-standard residues stand in square brackets, D forms with d. Residues, ends and D or L forms follow the SMILES beside them. pS = N[C@@H](COP(=O)(O)O)C(=O)O

Experiments:
upper GI transit in mice = assay: Gastrointestinal transit in mice (charcoal meal); assay type: in vivo; conditions: female CD-1 mice; oral gavage; distance travelled by charcoal front, % of small intestine
Method: The purpose of the assay was to test the effect of the guanylate cyclase C agonist peptides on in vivo gastrointestinal transit in mice.
For the assay, female CD-1 mice (n=10 per group) weighing 25-30 g were fasted overnight and given access to water ad libitum. Activated charcoal (20 g; 100 mesh; Sigma cat #242276) was suspended in 200 mL gum arabic (100 mg/mL), and stirred for at least one hour. Test peptides were prepared in a 20 mM Tris pH 6.9 vehicle.
Test peptide and vehicle were administered in 200 μL doses by oral gavage. Seven minutes after dosing the test peptides, 200 μL of the charcoal/gum arabic suspension was dosed by oral gavage. […] The total length of the small intestine was measured from the pyloric junction to the ileocaecal junction. The distance travelled by the charcoal was measured from the pyloric junction to the charcoal front. The Distance Travelled (%) was determined as (distance travelled by charcoal/total length of the small intestine)×100. Data were entered into the GraphPad Prism software program and analyzed by ANOVA using a Bonferroni multiple comparison test post-hoc. Plots of data and ED50 were also determined using the GraphPad Prism software package.
The dose-dependent effects of acute doses of Peptide 4, Peptide 1, Peptide 2, the dephosphorylated form of Peptide 1 and the dephosphorylated form of Peptide 2 on GI transit were determined in female CD mice. […]

[1] = test system: ligated rat duodenal loops; assay: Fluid secretion in rat intestinal loops; assay type: in vivo; conditions: 2.5 μg of peptide per loop
Method: The effect of GC-C agonist peptides on secretion were studied by injecting GC-C agonist peptides described herein directly into an isolated loop in wild-type rats.
Loops were isolated by surgically ligating three loops in the small intestine of the rat. The methodology for ligated loop formation was similar to that described in (London et al., 1997, Am J Physiol, p. G93-105). The loops were roughly centered and at lengths of 1-3 cm. The loops were injected with 200 μl of either peptide/GC-C agonist (0.1-5 μg) or vehicle (20 mM Tris, pH 7.5 or Krebs Ringer, 10 mM Glucose, HEPES buffer (KRGH)). Following a recovery time of up to 90 minutes the loops were excised. Weights were recorded for each loop before and after removal of the fluid contained therein. The length of each loop was also recorded. A weight to length ratio (W/L) for each loop was calculated to determine the effects of the GC-C agonist peptide described herein on secretion. Loop fluid volume was also determined.
Data showing increases in fluid secretion, pH increase and bicarbonate secretion in ligated duodenal loops in rats are shown in FIG. 2 and Table 8. […] Table 8 provides the results in ligated rat duodenal loops using 2.5 μg of peptide per loop.

[2] = In vitro metabolism in mouse jejunum loop fluid; assay type: in vitro ADME; conditions: for Rate of degradation relative to peptide 2: mouse intestinal fluid
Method: The purpose of this study was to determine the stability of phosphorylated peptides in mouse jejunal loop fluid. […] The isotopically labeled peptide 2 was synthesized with ^13C, ^15N-labeled alanine and leucine (i.e., with a sequence CCpS[^13C6,^15N]LCCNP[^13C6,^15N]ACTGC (SEQ ID NO:16)).
Each peptide was synthesized by American Peptide Company, Inc., and was stored desiccated at −20° C. A 1 mg/mL solution for each of the non-labeled peptides was prepared in 1 M tris(hydroxymethyl)aminomethane hydrochloride (Tris-HCl), pH 8 just prior to conducting the mouse intestinal loop fluid assay. A 500 ng/mL solution of ^13C, ^15N-labeled peptide 2 was prepared in 0.1% formic acid in water and was utilized to dilute the jejunum samples for post-assay LC-MS/MS analysis.
To collect the fluid, mice were fasted overnight with full access to water. They were then anesthetized with isofluorane for surgery and subjected to laparotomy in which the small intestine was exteriorized. Jejunum loops of 3 to 4 cm in length were made with sutures starting at 7 cm from the pyloric sphincter of the stomach. Once the loops were formed, they were injected with 200 μL of phosphate buffered saline (PBS) buffer (10 mM, pH 7.4). The abdominal wall and skin of the animals were then sutured, and the animals were allowed to recover for 30 minutes. Following recovery, the animals were sacrificed, the loops were then excised and the fluid inside was recovered and stored at −80° C. until use.
For each peptide, 25 μL of the 1 mg/mL peptide stock solution was added to 25 μL of 1 M Tris-HCl and 25 μL of 10× calf intestinal phosphatase (CIP) buffer containing 500 mM Tris-HCl, 1 M sodium chloride (NaCl), 0.1 mM magnesium chloride (MgCl2), pH 8. The reactions were initiated by adding 175 μL of the mouse jejunum loop fluid or 175 μL of the 1 M Tris-HCl pH8 buffer for the control reactions. The final concentration of each peptide was 100 μg/mL. The reactions were continuously mixed and maintained at 37° C. on a plate shaker. At 0, 2, 5, 10, 20, 30, 60, 90 and 120 minutes after adding the mouse intestinal loop fluid, a 25 μL aliquot was taken and added to 25 μL of 4° C. 12% trichloroacetic acid to stop the reaction. An additional 200 μL of 0.1% formic acid in water was added to these reactions for dilution purposes. These samples were then further diluted by taking 20 μL of each sample and adding it to 480 μL of 0.1% formic acid in water containing 500 ng/mL of the internal standard 13C, 15N-labeled peptide 2.
All samples were analyzed using an Applied Biosystems/MDS SCIEX API 4000 triple quadrupole mass spectrometer equipped with a high-performance liquid chromatography (HPLC) system. The mass spectrometer was operated in multiple reaction monitoring (MRM) mode, with resolution set to 1.2 Da. […]

[3] = biological target: T1, Calf intestinal alkaline phosphatase (CIP) (Bos taurus, UniProt P19111); assay: Alkaline phosphatase reaction (dephosphorylation of peptide substrates, LC-MS); assay type: in vitro ADME; conditions: with and without calf intestinal alkaline phosphatase; data not shown
T1 construct: purchased New England BioLabs M0290S
Method: For the alkaline phosphatase reactions, peptide stocks were prepared at 1 mg/mL in 0.1 M Tris-HCl pH 8, which were stored at −20° C. until assays were conducted. For the acid phosphatase reactions, peptide stocks were prepared at 1 mg/mL in 50 mM sodium phosphate pH 6, which was stored at −20° C. until assays were conducted.
Calf intestinal alkaline phosphatase (CIP) was obtained from New England BioLabs, Ipswich, Mass. Cat #M0290S. The CIP reaction solution was prepared by dilution with buffer (50 mM KCl, 10 mM Tris-HCl pH 8, 1 mM MgCl2, 50% glycerol) to 0.5 units/μL. The alkaline phosphatase reaction solutions were assembled in 20 μL quantities containing: • 2 μL 10× CIP buffer (1M NaCl, 500 mM Tris-HCl pH 8, 100 mM MgCl2) • 2 μL peptide stock (1 mg/mL) • 12 μL H2O • 4 μL alkaline phosphatase (0, 0.5 or 2 units)
The reaction solutions were mixed gently and incubated for 90 minutes at 37° C. These reaction solutions were stored at −20° C. until analysis. For analysis, the reaction solutions were diluted from […] of CIP treated peptide to 50 μL with 0.1% formic acid in water to a final concentration of 10 μM.
Control reactions were assembled for enzyme activity containing 10 mM p-nitrophenylphosphate in place of peptide. After incubation, the reactions were diluted with 0.1 mL of 100 mM borate buffer pH 9 and read at the absorbance of 405 nm to monitor p-nitrophenol appearance.

T1 sequence (P19111 20-506): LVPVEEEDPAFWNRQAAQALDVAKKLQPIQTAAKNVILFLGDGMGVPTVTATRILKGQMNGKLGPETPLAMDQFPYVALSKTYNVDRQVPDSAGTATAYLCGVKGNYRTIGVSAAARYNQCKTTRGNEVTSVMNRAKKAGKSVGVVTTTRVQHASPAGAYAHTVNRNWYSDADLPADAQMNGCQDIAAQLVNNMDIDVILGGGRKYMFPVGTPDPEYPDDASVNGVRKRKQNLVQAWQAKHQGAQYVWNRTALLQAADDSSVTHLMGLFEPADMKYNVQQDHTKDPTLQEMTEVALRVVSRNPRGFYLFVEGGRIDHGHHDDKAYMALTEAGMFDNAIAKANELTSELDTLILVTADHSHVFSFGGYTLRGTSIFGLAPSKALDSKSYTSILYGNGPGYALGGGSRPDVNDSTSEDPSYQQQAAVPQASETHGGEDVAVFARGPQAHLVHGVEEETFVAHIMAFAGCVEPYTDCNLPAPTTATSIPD

CCEFCCNPACTGCY (Synthetically generated peptide (Peptide 4))
ED50, acceleration of upper GI transit in mice (upper GI transit in mice): 2.06 µg/kg | Rate of HCO3− accumulation [1]: 0.00008 Meq/min/cm | Rate of fluid accumulation [1]: 2.0 µL/min/cm | pH [1]: 8.2

CC(C)C[C@@H]1NC(=O)[C@H](CCC(=O)O)NC(=O)[C@@H]2CSSC[C@@H]3NC(=O)[C@H](C)NC(=O)[C@@H]4CCCN4C(=O)[C@H](CC(N)=O)NC(=O)[C@H](CSSC[C@H](N)C(=O)N2)NC(=O)[C@H](CSSC[C@@H](C(=O)N[C@@H](Cc2ccc(O)cc2)C(=O)O)NC(=O)CNC(=O)[C@H]([C@@H](C)O)NC3=O)NC1=O [Peptide 3, CCELCCNPACTGCY] (H-CCELCCNPACTGCY-OH; disulfide 1-6, 2-10, 5-13 (inferred); N-terminus and C-terminus assumed)
Rate of degradation relative to peptide 2 [2]: degraded faster in mouse intestinal fluid than peptide 2 | Peptide remaining (detection) ([2]; mouse jejunum fluid, after 90 minutes, 37° C.): not detected | Effect of CIP treatment on peptide (LC-MS) [3]: not affected

CC(C)C[C@@H]1NC(=O)[C@H](COP(=O)(O)O)NC(=O)[C@@H]2CSSC[C@@H]3NC(=O)[C@H](C)NC(=O)[C@@H]4CCCN4C(=O)[C@H](CC(N)=O)NC(=O)[C@H](CSSC[C@H](N)C(=O)N2)NC(=O)[C@H](CSSC[C@@H](C(=O)O)NC(=O)CNC(=O)[C@H]([C@@H](C)O)NC3=O)NC1=O [Peptide 2, CCpSLCCNPACTGC] (H-CC[pS]LCCNPACTGC-OH; disulfide 1-6, 2-10, 5-13 (inferred); N-terminus and C-terminus assumed)
Metabolite formation ([2]; mouse jejunum loop fluid at 37° C.): Formation of dephospho-peptide 2 was observed

CC(C)C[C@@H]1NC(=O)[C@H](CO)NC(=O)[C@@H]2CSSC[C@@H]3NC(=O)[C@H](C)NC(=O)[C@@H]4CCCN4C(=O)[C@H](CC(N)=O)NC(=O)[C@H](CSSC[C@H](N)C(=O)N2)NC(=O)[C@H](CSSC[C@@H](C(=O)O)NC(=O)CNC(=O)[C@H]([C@@H](C)O)NC3=O)NC1=O [Dephospho-Peptide 2, CCSLCCNPACTGC] (H-CCSLCCNPACTGC-OH; disulfide 1-6, 2-10, 5-13 (inferred); N-terminus and C-terminus assumed)
Rate of degradation relative to peptide 2 [2]: degraded faster in mouse intestinal fluid than peptide 2
